Like-named read-outs stand apart in the source and are kept apart here. Square brackets hold non-standard residues; d marks the D form. Peptide text beside a SMILES is read from it. Bip = N[C@@H](Cc1ccc(-c2ccccc2)cc1)C(=O)O; Phe(2-F) = N[C@@H](Cc1ccccc1F)C(=O)O; Aib = CC(C)(N)C(=O)O

These results are taken from patent US20230015478A1, “GLP-1 RECEPTOR AGONISTS HAVING IMPROVED PHARMACOLOGICAL AND DRUG DELIVERY PROPERTIES” (priority 2021, published 2023).

The assay has as its target T1, hGLP1 receptor (Homo sapiens, UniProt P43220).
T1 construct: expressed in transfected cells; host or cells: HEK (human embryonic kidney) cells co-expressing hGLP1 receptor and CRE-Luciferase
Briefly: cAMP HTRF agonist assay in HEK cells co-expressing hGLP1 receptor and CRE-Luciferase. Type of assay: cell-based. The method, then: Human embryonic kidney cells (HEK) co-expressing the hGLP1 receptor and CRE-Luciferase construct were used to determine agonist potency in this assay. The cells were thawed briefly at 37° C., transferred to a sterile tube and re-suspended in complete media at 37° C. Cells were centrifuged at 1000 rpm for 5 minutes and cells collected; cells were re-suspended in assay buffer consisting of DPBS (GIBCO) with 500 μM of the phosphodiesterase inhibitor IBMX. […] The optimal cell density was determined to be 1000 cells/well; cells were added to wells in 384-well plates containing appropriate pre-prepared dilutions of compounds (test peptides or reference compound exendin-4), sealed and incubated with CO2 for 30 min. Test peptide solutions were diluted from 10 mM stock solutions; for most peptides an initial run was performed in duplicate from a maximal concentration of 1.0 μM, with 11 concentrations tested for each peptide using serial 1:3 dilution from this maximal concentration. […] The agonist assay was a homogeneous time-resolved fluorescence (HTRF) assay (Cisbio).
Following incubation of the cells for 30 minutes with test or reference peptides, 5 μL of the cAMP acceptor cAMP-d2, prepared previously as a working solution from frozen stock (1:20 dilution), was added to each well of the assay plate, along with 5 μL of anti-cAMP antibody-cryptate working solution (diluted 1:20 from frozen stock). The wells were incubated for 1 hour at room temperature, and fluorescence was then read at 665 and 615 nm with an Envision reader with TRF laser. Data were saved and analyzed using Prism software (GraphPad). Concentration-response analysis was performed using 4-parameter logistic fits of the resulting data, and EC50 values obtained for each test and reference compound.

Setting [1] is: cAMP EC50, nM (0.1% albumin), Table 1, 0.1% albumin.
The mark [2] stands for this setting: cAMP EC50, nM (0.1% albumin), Table 2, 0.1% albumin.

T1 sequence (P43220 24-463): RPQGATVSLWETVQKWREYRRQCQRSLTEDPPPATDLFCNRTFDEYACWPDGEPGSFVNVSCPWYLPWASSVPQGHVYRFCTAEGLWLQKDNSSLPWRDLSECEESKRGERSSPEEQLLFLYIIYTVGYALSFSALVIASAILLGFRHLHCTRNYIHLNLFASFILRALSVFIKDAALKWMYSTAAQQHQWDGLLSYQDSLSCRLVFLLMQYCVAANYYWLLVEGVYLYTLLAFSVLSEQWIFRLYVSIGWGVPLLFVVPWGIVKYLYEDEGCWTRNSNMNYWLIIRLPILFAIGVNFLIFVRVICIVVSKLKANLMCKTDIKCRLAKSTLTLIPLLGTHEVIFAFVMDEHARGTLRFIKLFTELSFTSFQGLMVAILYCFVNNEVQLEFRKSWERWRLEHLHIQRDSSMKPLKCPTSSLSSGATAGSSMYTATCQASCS

Turning to `C[C@@H](O)[C@H](NC(=O)CNC(=O)[C@H](CCC(=O)O)NC(=O)C(C)(C)NC(=O)[C@@H](N)Cc1c[nH]cn1)C(=O)N[C@@H](Cc1ccc(O)cc1)C(=O)N[C@H](C(=O)N[C@@H](CO)C(=O)N[C@@H](CC(=O)O)C(=O)N[C@@H](Cc1ccc(-c2ccccc2)cc1)C(=O)N[C@@H](Cc1ccc(-c2ccccc2)cc1)C(N)=O)[C@@H](C)O` [3-12, H2N-His-Aib-Glu-Gly-Thr-Tyr-Thr-Ser-Asp-Bip-Bip-C(O)NH2] (H-H[Aib]EGTYTSD[Bip][Bip]-NH2), the EC50 under setting [1] came to 7.3 nM. Same read-out and setting: then `C[C@@H](O)[C@H](NC(=O)CNC(=O)[C@H](CCC(=O)O)NC(=O)C(C)(C)NC(=O)[C@@H](N)Cc1c[nH]cn1)C(=O)N[C@H](Cc1ccccc1)C(=O)N[C@H](C(=O)N[C@@H](CO)C(=O)N[C@@H](CC(=O)O)C(=O)N[C@@H](Cc1ccc(-c2ccccc2)cc1)C(=O)N[C@@H](Cc1ccc(-c2ccccc2)cc1)C(N)=O)[C@@H](C)O` [3-13, H2N-His-Aib-Glu-Gly-Thr-D-Phe-Thr-Ser-Asp-Bip-Bip-C(O)NH2] (H-H[Aib]EGT[dF]TSD[Bip][Bip]-NH2), with 57 nM; and `C[C@@H](O)[C@H](NC(=O)CNC(=O)[C@H](CCC(=O)O)NC(=O)C(C)(C)NC(=O)[C@@H](N)Cc1c[nH]cn1)C(=O)N[C@@H](Cc1c[nH]c2ccccc12)C(=O)N[C@H](C(=O)N[C@@H](CO)C(=O)N[C@@H](CC(=O)O)C(=O)N[C@@H](Cc1ccc(-c2ccccc2)cc1)C(=O)N[C@@H](Cc1ccc(-c2ccccc2)cc1)C(N)=O)[C@@H](C)O` [3-14, H2N-His-Aib-Glu-Gly-Thr-Trp-Thr-Ser-Asp-Bip-Bip-C(O)NH2] (H-H[Aib]EGTWTSD[Bip][Bip]-NH2), with 67.6 nM; and `C[C@@H](O)[C@H](NC(=O)CNC(=O)[C@H](CCC(=O)O)NC(=O)C(C)(C)NC(=O)[C@@H](N)Cc1c[nH]cn1)C(=O)N[C@@H](Cc1ccc(-c2ccccc2)cc1)C(=O)N[C@H](C(=O)N[C@@H](CO)C(=O)N[C@@H](CC(=O)O)C(=O)N[C@@H](Cc1ccc(-c2ccccc2)cc1)C(=O)N[C@@H](Cc1ccc(-c2ccccc2)cc1)C(N)=O)[C@@H](C)O` [3-15, H2N-His-Aib-Glu-Gly-Thr-Bip-Thr-Ser-Asp-Bip-Bip-C(O)NH2] (H-H[Aib]EGT[Bip]TSD[Bip][Bip]-NH2), with 26.2 nM. Under setting [1], `C[C@@H](O)[C@H](NC(=O)CNC(=O)[C@H](CCC(=O)O)NC(=O)C(C)(C)NC(=O)[C@@H](N)Cc1c[nH]cn1)C(=O)NC(C)(C)C(=O)N[C@H](C(=O)N[C@@H](CO)C(=O)N[C@@H](CC(=O)O)C(=O)N[C@@H](Cc1ccc(-c2ccccc2)cc1)C(=O)N[C@@H](Cc1ccc(-c2ccccc2)cc1)C(N)=O)[C@@H](C)O` [3-18, H2N-His-Aib-Glu-Gly-Thr-Aib-Thr-Ser-Asp-Bip-Bip-C(O)NH2] (H-H[Aib]EGT[Aib]TSD[Bip][Bip]-NH2) came in with an EC50 of 152 nM. Regarding `C[C@H](NC(=O)[C@@H](NC(=O)CNC(=O)[C@H](CCC(=O)O)NC(=O)C(C)(C)NC(=O)[C@@H](N)Cc1c[nH]cn1)[C@@H](C)O)C(=O)N[C@H](C(=O)N[C@@H](CO)C(=O)N[C@@H](CC(=O)O)C(=O)N[C@@H](Cc1ccc(-c2ccccc2)cc1)C(=O)N[C@@H](Cc1ccc(-c2ccccc2)cc1)C(N)=O)[C@@H](C)O` [3-19, H2N-His-Aib-Glu-Gly-Thr-Ala-Thr-Ser-Asp-Bip-Bip-C(O)NH2] (H-H[Aib]EGTATSD[Bip][Bip]-NH2), the EC50 (Table 1, cells marked (0% albumin), read-out: cAMP EC50, nM (0% albumin)) is 2800 nM. On to `C[C@H](N)C(=O)NC(C)(C)C(=O)N[C@@H](CCC(=O)O)C(=O)NCC(=O)N[C@H](C(=O)N[C@@H](Cc1ccccc1F)C(=O)N[C@H](C(=O)N[C@@H](CO)C(=O)N[C@@H](CC(=O)O)C(=O)N[C@@H](Cc1ccc(-c2ccccc2)cc1)C(=O)N[C@@H](Cc1ccc(-c2ccccc2)cc1)C(N)=O)[C@@H](C)O)[C@@H](C)O` [3-20, H2N-Ala-Aib-Glu-Gly-Thr-Phe(2-F)-Thr-Ser-Asp-Bip-Bip-C(O)NH2] (H-A[Aib]EGT[Phe(2-F)]TSD[Bip][Bip]-NH2), for which the EC50 under setting [2] came to 66 nM.

`C[C@H](NC(=O)[C@@H](N)Cc1c[nH]cn1)C(=O)N[C@@H](CCC(=O)O)C(=O)NCC(=O)N[C@H](C(=O)N[C@@H](Cc1ccccc1F)C(=O)N[C@H](C(=O)N[C@@H](CO)C(=O)N[C@@H](CC(=O)O)C(=O)N[C@@H](Cc1ccc(-c2ccccc2)cc1)C(=O)N[C@@H](Cc1ccc(-c2ccccc2)cc1)C(N)=O)[C@@H](C)O)[C@@H](C)O` [3-21, H2N-His-Ala-Glu-Gly-Thr-Phe(2-F)-Thr-Ser-Asp-Bip-Bip-C(O)NH2] (H-HAEGT[Phe(2-F)]TSD[Bip][Bip]-NH2): the midpoint of the response under setting [2], the EC50, lay at 0.29 nM. On the same count and under the same terms, next, `C[C@H](NC(=O)C(C)(C)NC(=O)[C@@H](N)Cc1c[nH]cn1)C(=O)NCC(=O)N[C@H](C(=O)N[C@@H](Cc1ccccc1F)C(=O)N[C@H](C(=O)N[C@@H](CO)C(=O)N[C@@H](CC(=O)O)C(=O)N[C@@H](Cc1ccc(-c2ccccc2)cc1)C(=O)N[C@@H](Cc1ccc(-c2ccccc2)cc1)C(N)=O)[C@@H](C)O)[C@@H](C)O` [3-22, H2N-His-Aib-Ala-Gly-Thr-Phe(2-F)-Thr-Ser-Asp-Bip-Bip-C(O)NH2] (H-H[Aib]AGT[Phe(2-F)]TSD[Bip][Bip]-NH2): 20.3 nM. With `C[C@H](NC(=O)[C@H](CCC(=O)O)NC(=O)C(C)(C)NC(=O)[C@@H](N)Cc1c[nH]cn1)C(=O)N[C@H](C(=O)N[C@@H](Cc1ccccc1F)C(=O)N[C@H](C(=O)N[C@@H](CO)C(=O)N[C@@H](CC(=O)O)C(=O)N[C@@H](Cc1ccc(-c2ccccc2)cc1)C(=O)N[C@@H](Cc1ccc(-c2ccccc2)cc1)C(N)=O)[C@@H](C)O)[C@@H](C)O` [3-23, H2N-His-Aib-Glu-Ala-Thr-Phe(2F)-Thr-Ser-Asp-Bip-Bip-C(O)NH2] (H-H[Aib]EAT[Phe(2-F)]TSD[Bip][Bip]-NH2), the EC50 (Table 2, cell marked (0% albumin), read-out: cAMP EC50, nM (0% albumin)) was determined as 347 nM. `C[C@H](NC(=O)CNC(=O)[C@H](CCC(=O)O)NC(=O)C(C)(C)NC(=O)[C@@H](N)Cc1c[nH]cn1)C(=O)N[C@@H](Cc1ccccc1F)C(=O)N[C@H](C(=O)N[C@@H](CO)C(=O)N[C@@H](CC(=O)O)C(=O)N[C@@H](Cc1ccc(-c2ccccc2)cc1)C(=O)N[C@@H](Cc1ccc(-c2ccccc2)cc1)C(N)=O)[C@@H](C)O` [3-24, H2N-His-Aib-Glu-Gly-Ala-Phe(2-F)-Thr-Ser-Asp-Bip-Bip-C(O)NH2] (H-H[Aib]EGA[Phe(2-F)]TSD[Bip][Bip]-NH2) gave an EC50 under setting [2] of 28.1 nM. On the same count and under the same terms, then `C[C@H](NC(=O)[C@H](Cc1ccccc1F)NC(=O)[C@@H](NC(=O)CNC(=O)[C@H](CCC(=O)O)NC(=O)C(C)(C)NC(=O)[C@@H](N)Cc1c[nH]cn1)[C@@H](C)O)C(=O)N[C@@H](CO)C(=O)N[C@@H](CC(=O)O)C(=O)N[C@@H](Cc1ccc(-c2ccccc2)cc1)C(=O)N[C@@H](Cc1ccc(-c2ccccc2)cc1)C(N)=O` [3-25, H2N-His-Aib-Glu-Gly-Thr-Phe(2-F)-Ala-Ser-Asp-Bip-Bip-C(O)NH2] (H-H[Aib]EGT[Phe(2-F)]ASD[Bip][Bip]-NH2), with 79.1 nM; and `C[C@H](NC(=O)[C@@H](NC(=O)[C@H](Cc1ccccc1F)NC(=O)[C@@H](NC(=O)CNC(=O)[C@H](CCC(=O)O)NC(=O)C(C)(C)NC(=O)[C@@H](N)Cc1c[nH]cn1)[C@@H](C)O)[C@@H](C)O)C(=O)N[C@@H](CC(=O)O)C(=O)N[C@@H](Cc1ccc(-c2ccccc2)cc1)C(=O)N[C@@H](Cc1ccc(-c2ccccc2)cc1)C(N)=O` [3-26, H2N-His-Aib-Glu-Gly-Thr-Phe(2-F)-Thr-Ala-Asp-Bip-Bip-C(O)NH2] (H-H[Aib]EGT[Phe(2-F)]TAD[Bip][Bip]-NH2), with 18.9 nM.
